Assay results from patent publication US9096607B2, “Tumor necrosis factor inhibitors” (THE TRUSTEES OF THE UNIVERSITY OF PENNSYLVANIA, priority 2005, dated 2015).

Tested on: L929 cells
Assay: Inhibition of TNF-α mediated cytolysis of L929 cells (Alamar Blue)
Assay type: cell-based, murine
Details: TNF-α 100 pg/mL, actinomycin D 1 μM; for % Inhibition at: 25 μM: 25 μM compound; for % Inhibition at: 50 μM: 50 μM compound; for % Inhibition at: 100μM: 100 μM compound
Description: L929 cultured murine fibroblasts cells were obtained from American Type Culture Collection (Manassas, Va.). Tissue culture reagents were from Invitrogen or Sigma-Aldrich. TNF-α and Actinomycin D were from Sigma-Aldrich. Alamar Blue reagents (Cell Titer Blue™) were from Promega. The test compounds I-1 through I-16, II-1 through II-8, and III-1 through III-3 were obtained commercially or can be prepared as described above. The test compounds were individually dissolved in dimethylsulfoxide (DMSO). The test compounds were maintained at 4° C. when not in use. Other reagents were high-purity (ACS-grade, HPLC-grade, MilliQ water, or similar).
Stock L929 cells were grown on tissue culture plastic in complete DMEM (Dulbecco's Modified Eagles Medium) supplemented with 10% FBS (Fetal Bovine Serum), NEAA (non-essential amino acids), and glutamine. L929 cells were plated using the same medium on 96-well tissue culture plates at high density (i.e., ˜4×10^4 cells/well, or similar) before use.
Approximately 20 h after plating, the L929 cells on 96-well plates were re-fed with fresh medium containing one of the test compounds in a concentration selected from 100 μM, 50 μM, 25 μM as a “pre-treatment.” Approximately 30-60 min later, samples were treated with an additional amount of test compound (in the same amount and at the same concentration as the pre-treatment) prepared in medium containing TNF-α (200 pg/mL), and actinomycin D (2 μM). The final concentration of TNF-α in assays was 100 pg/mL. The final concentration of actinomycin D in assays was 1 μM. The plates were incubated for an additional 22-23 h, the Alamar Blue assay reagents were added and metabolic cell viability was determined from reduction of a fluorogenic Alamar Blue derivative.
The temperature was maintained at 37° C. with 5% CO2 and humidified. The metabolic viability was measured 1-2 h after addition of assay reagents/Alamar Blue derivative using TECAN SaFire fluorescence plate reader (Tecan Group Ltd., Maennedorf, Switzerland).
Inhibition of TNF-α induced cytolysis by a test compound (X) at a given concentration (y) was calculated as follows: […]

| SMILES | % Inhibition at: 25 μM | % Inhibition at: 50 μM | % Inhibition at: 100μM |
| --- | --- | --- | --- |
| CN(C)c1ccc(C(O)(c2ccc(N(C)C)cc2)c2ccc(N(C)C)cc2)cc1 [Compound I-1, 1,1,1-Tris-(4-dimethylaminophenyl)methanol] | 44.0% | 63.3% | 40.9% |
| CC(c1ccc(OCC(=O)[O-])cc1)(c1ccc(OCC(=O)[O-])cc1)c1ccc(OCC(=O)[O-])cc1.[Na+].[Na+].[Na+] [Compound I-3, 1,1,1-Tris-(4-carboxymethoxyphenyl)ethane, trisodium salt] | 23.0% | 17.7% | 12.4% |
| COC(=O)COc1ccc(C(C)(c2ccc(OCC(=O)OC)cc2)c2ccc(OCC(=O)OC)cc2)cc1 [Compound I-4, 1,1,1-Tris-(4-methoxycarbonylmethoxyphenyl)ethane] | 18.4% | 27.9% | −11.6% |
| COc1ccc(C(C(=O)[O-])(c2ccc(OC)cc2)c2ccc(OC)cc2)cc1.[Na+] [Compound I-5, Sodium 1,1,1-tris-(4-methoxyphenyl)acetate] | 1.7% | 5.0% | 12.1% |
| COc1ccc(C(O)(c2ccc(OC)cc2)c2ccc(OC)cc2)cc1 [Compound I-6, 1,1,1-Tris-(4-methoxyphenyl)methanol] | 12.0% | 25.9% | 32.5% |
| COc1ccc([C+](c2ccc(OC)cc2)c2ccc(OC)cc2)cc1 [Compound I-7, 4,4′,4″-Trimethoxytrityl tetrafluoroborate] | 15.1% | 30.2% | 25.9% |
| COc1ccc(C(C(=O)O)(c2ccc(OC)cc2)c2ccc(OC)cc2)cc1 [Compound I-8, 1,1,1-Tris-(4-methoxyphenyl)acetic acid] | 2.7% | 6.9% | 18.4% |
| CC(=O)Oc1ccc(C(C)(c2ccccc2)c2ccc(OC(C)=O)cc2)cc1 [Compound I-10, 1,1-Bis-(4-acetoxyphenyl)-1-phenyl-ethane] | 20.7% | 46.6% | 71.9% |
| COC(=O)COc1ccc(C(C)(c2ccc(O)cc2)c2ccc(O)cc2)cc1 [Compound I-11, 1,1-Bis-(4-hydroxyphenyl)-1-(4-methoxycarbonylmethoxyphenyl)ethane] | 13.9% | 36.7% | 14.8% |
| CC(c1ccc(O)cc1)(c1ccc(OCC(=O)O)cc1)c1ccc(OCC(=O)O)cc1.[Na+].[Na+].[Na+] [Compound I-12, 1,1-Bis-(4-carboxymethoxy-phenyl)-1-(4-hydroxyphenyl)ethane, trisodium salt] | 14.5% | 16.9% | 14.2% |
| CC(c1ccc(OC(=O)CCl)cc1)(c1ccc(OC(=O)CCl)cc1)c1ccc(OC(=O)CCl)cc1 [Compound I-13, 1,1,1-Tris-(4-chloroacetoxyphenyl)ethane] | 35.4% | 72.2% | 38.9% |
| COC(=O)COc1ccc(C(C)(c2ccc(OCC(=O)OC)cc2)c2ccc(OC(C)=O)cc2)cc1 [Compound I-14, 1-(4-Acetoxy-phenyl)-1,1-bis-(4-methoxycarbonylmethoxyphenyl)ethane] | 13.4% | 30.2% | 45.3% |
| CC(c1ccccc1)(c1ccc(OC(=O)CCl)cc1)c1ccc(OC(=O)CCl)cc1 [Compound I-15, 1,1-Bis-(4-chloroacetoxyphenyl)-1-phenylethane] | 29.7% | 73.8% | −19.8% |
| CC(=O)Oc1ccc(C2(c3ccc(OC(C)=O)cc3)C(=O)Nc3ccccc32)cc1 [Compound I-16, 3,3-Bis[4-(acetyloxy)phenyl]-1,3-dihydro-2H-indol-2-one] | 4.3% | 11.5% | 17.1% |
| CN(C)c1ccc(C(O)(c2ccccc2)c2ccc(N(C)C)cc2)cc1 [Compound I-17, 1,1-Bis(4-dimethylaminophenyl)-1-phenyl-methanol] | −16.0% | −17.0% | −17.9% |
| Cc1cc(C(C)(c2ccc(O)cc2)c2cc(C)c(N)c(C)c2)cc(C)c1N [Compound I-18, 1,1-Bis(4-amino-3,5-dimethylphenyl)-1-(4-hydroxyphenyl)-ethane] | 22.6% | 36.6% | 53.8% |
| O=C1OC2(c3ccc(Cl)cc3Oc3cc(Cl)ccc32)c2ccccc21 [II-1, 3′,6′-Dichlorofluorescein] | 20.7% | 8.8% | 7.6% |
| CC(=O)Oc1ccc2c(c1)Oc1cc(OC(C)=O)ccc1C21OC(=O)c2ccccc21 [II-2, 3′,6′-Fluorescein diacetate] | 25.4% | 23.5% | 26.0% |
| O=C(O)c1ccccc1C1c2ccc(Cl)cc2Oc2cc(Cl)ccc21 [II-3, 2-(3,6-Dichloro-9H-xanthen-9-yl)-benzoic acid] | 36.2% | 45.6% | 52.4% |
| O=C(O)c1ccccc1C1c2ccc(O)cc2Oc2cc(O)ccc21 [II-4, 2-(3,6-Dihydroxy-9H-xanthen-9-yl)-benzoic acid] | 33.3% | 23.6% | 23.2% |
| O=C(O)c1ccccc1C1c2ccc(O)cc2Oc2cc(O)ccc21 [II-5, 2-Hydroxy-1,1-bis-hydroxymethyl-ethyl-ammonium; 2-(3,6-dihydroxy-9H-xanthen-9-yl)-benzoate] | 25.1% | 16.3% | 21.5% |
| NC(=O)c1ccccc1C1c2ccc(Cl)cc2Oc2cc(Cl)ccc21 [II-6, 2-(3,6-Dichloro-9H-xanthen-9-yl)-benzamide] | 43.3% | −6.1% | −21.7% |
| O=C([O-])c1ccccc1C(c1ccc(O)cc1)c1ccc(O)cc1.[K+] [II-7, Potassium 2-[bis-(4-hydroxyphenyl)-methyl]-benzoate] | 22.5% | 19.1% | 13.2% |
| O=C([O-])c1ccccc1C1c2ccc(O)cc2Oc2cc(O)ccc21.[K+] [II-8, Potassium 2-(3,6-dihydroxy-9H-xanthen-9-yl)-benzoate] | 23.6% | 24.7% | 25.6% |
| CC(=O)Oc1cc2c(cc1Cl)C1(OC(=O)c3ccccc31)c1cc(Cl)c(OC(C)=O)cc1O2 [II-9, 2′,7′-Dichlorofluorescein diacetate] | 6.3% | 10.5% | 22.0% |
| O=[N+]([O-])c1cccc(NN=C(c2ccc(O)cc2)c2ccc(O)cc2)c1 [III-1, N-(4,4′-Dihydroxybenzhydrylidene)-N′-(3-nitrophenyl)hydrazine] | 33.2% | 42.5% | −20.3% |
| CC(=O)Oc1ccc(C(=NNc2cccc([N+](=O)[O-])c2)c2ccc(OC(C)=O)cc2)cc1 [III-2, 4,4′-Diacetoxybenzophenone-3-nitrophenylhydrazone] | 26.9% | 42.0% | −19.8% |
| O=[N+]([O-])c1cccc(NN=C(c2ccc(Cl)cc2)c2ccc(Cl)cc2)c1 [III-3, N-(4,4′-Dichlorobenzhydrylidene)-N-(3-nitrophenyl)hydrazine] | 6.6% | 3.4% | 8.1% |
